According to paper PMC7181660, “A novel specific PERK activator reduces toxicity and extends survival in Huntington's disease models” (Scientific Reports, 2020):

What was measured:
Experiment in all cases: biochemical
Format in all cases: biochemical
panel of 391 kinases [1] = target: panel of 391 kinases (Homo sapiens, UniProt O15146); conditions: MUSK, MK-28 1 µM, ATP 1 µM
panel of 391 kinases [2] = target: panel of 391 kinases (Homo sapiens, UniProt O60674); conditions: JAK2, MK-28 1 µM, ATP 1 µM
panel of 391 kinases [3] = target: panel of 391 kinases (Homo sapiens, UniProt O96013); conditions: PAK4, MK-28 1 µM, ATP 1 µM
panel of 391 kinases [4] = target: panel of 391 kinases (Homo sapiens, UniProt P07947); conditions: YES/YES1, MK-28 1 µM, ATP 1 µM
panel of 391 kinases [5] = target: T1, panel of 391 kinases (Homo sapiens, UniProt P10398); conditions: ARAF, MK-28 1 µM, ATP 1 µM
T1 sequence (P10398 1-606): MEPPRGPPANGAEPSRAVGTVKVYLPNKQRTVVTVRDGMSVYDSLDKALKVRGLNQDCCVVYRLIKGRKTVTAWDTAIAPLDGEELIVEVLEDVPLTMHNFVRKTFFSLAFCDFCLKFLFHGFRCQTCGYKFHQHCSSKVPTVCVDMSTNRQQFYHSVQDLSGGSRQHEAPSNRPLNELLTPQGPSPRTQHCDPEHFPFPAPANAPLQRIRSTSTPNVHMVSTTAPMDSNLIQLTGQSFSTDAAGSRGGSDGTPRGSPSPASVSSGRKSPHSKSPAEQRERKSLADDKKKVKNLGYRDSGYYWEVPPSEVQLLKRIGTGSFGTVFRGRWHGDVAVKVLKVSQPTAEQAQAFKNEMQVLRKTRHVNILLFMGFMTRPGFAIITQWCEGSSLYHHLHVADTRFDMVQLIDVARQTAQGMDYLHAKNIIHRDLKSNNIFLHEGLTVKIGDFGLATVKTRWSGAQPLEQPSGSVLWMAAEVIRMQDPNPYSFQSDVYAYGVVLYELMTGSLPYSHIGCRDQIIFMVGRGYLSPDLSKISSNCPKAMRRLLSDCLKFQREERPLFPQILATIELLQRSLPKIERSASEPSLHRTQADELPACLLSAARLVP

panel of 391 kinases [6] = target: panel of 391 kinases (Homo sapiens, UniProt P17612); conditions: PKA, MK-28 1 µM, ATP 1 µM
panel of 391 kinases [7] = target: panel of 391 kinases (Homo sapiens, UniProt P30530); conditions: AXL, MK-28 1 µM, ATP 1 µM
panel of 391 kinases [8] = target: panel of 391 kinases (Homo sapiens, UniProt P36894); conditions: ALK3/BMPR1A, MK-28 1 µM, ATP 1 µM
panel of 391 kinases [9] = target: panel of 391 kinases (Homo sapiens, UniProt P49840); conditions: GSK3a, MK-28 1 µM, ATP 1 µM
panel of 391 kinases [10] = target: panel of 391 kinases (Homo sapiens, UniProt P54760); conditions: EPHB4; MK-28 1 µM; ATP 1 µM; read-out: % Enzyme Activity (relative to DMSO controls)
panel of 391 kinases [11] = target: panel of 391 kinases (Homo sapiens, UniProt P54762); conditions: EPHB1, MK-28 1 µM, ATP 1 µM
panel of 391 kinases [12] = target: panel of 391 kinases (Homo sapiens, UniProt P78368); conditions: CK1g2, MK-28 1 µM, ATP 1 µM
panel of 391 kinases [13] = target: panel of 391 kinases (Homo sapiens, UniProt Q04759); conditions: PKCtheta, MK-28 1 µM, ATP 1 µM
panel of 391 kinases [14] = target: panel of 391 kinases (Homo sapiens, UniProt Q15208); conditions: STK38/NDR1, MK-28 1 µM, ATP 1 µM
panel of 391 kinases [15] = target: panel of 391 kinases (Homo sapiens, UniProt Q5S007); conditions: LRRK2, MK-28 1 µM, ATP 1 µM
panel of 391 kinases [16] = target: panel of 391 kinases (Homo sapiens, UniProt Q7KZI7); conditions: MARK2/PAR-1Ba, MK-28 1 µM, ATP 1 µM
panel of 391 kinases [17] = target: panel of 391 kinases (Homo sapiens, UniProt Q8WTQ7); conditions: GRK7, MK-28 1 µM, ATP 1 µM
panel of 391 kinases [18] = target: panel of 391 kinases (Homo sapiens, UniProt Q9BYT3); conditions: STK33, MK-28 1 µM, ATP 1 µM
panel of 391 kinases [19] = target: panel of 391 kinases (Homo sapiens, UniProt Q9H422); conditions: HIPK3, MK-28 1 µM, ATP 1 µM
panel of 391 kinases [20] = target: panel of 391 kinases (Homo sapiens, UniProt Q9UPE1); conditions: MSSK1/STK23, MK-28 1 µM, ATP 1 µM
panel of 391 kinases [21] = target: panel of 391 kinases (Homo sapiens, UniProt Q9UQM7); conditions: CAMK2a, MK-28 1 µM, ATP 1 µM
panel of 391 kinases [22] = target: panel of 391 kinases (Homo sapiens, UniProt Q9Y2U5); conditions: MEKK2, MK-28 1 µM, ATP 1 µM
[23] = read-out: % Enzyme Activity (relative to DMSO controls)

CN(/N=C\c1ccc(O)c(O)c1)c1nc(-c2ccccc2)cc(-c2ccccc2)n1 [MK-28]
% Enzyme Activity (relative to DMSO controls) (panel of 391 kinases [1]): 95.79% | remaining activity at 1 µM (panel of 391 kinases [1]; [23]): 99.1% | % Enzyme Activity (relative to DMSO controls) (panel of 391 kinases [2]): 91.77% | remaining activity at 1 µM (panel of 391 kinases [2]; [23]): 93.8% | % Enzyme Activity (relative to DMSO controls) (panel of 391 kinases [3]): 97.48% | remaining activity at 1 µM (panel of 391 kinases [3]; [23]): 97.6% | % Enzyme Activity (relative to DMSO controls) (panel of 391 kinases [4]): 96.24% | remaining activity at 1 µM (panel of 391 kinases [4]; [23]): 97.6% | % Enzyme Activity (relative to DMSO controls) (panel of 391 kinases [5]): 93.30% | remaining activity at 1 µM (panel of 391 kinases [5]; [23]): 96.2% | % Enzyme Activity (relative to DMSO controls) (panel of 391 kinases [6]): 91.97% | remaining activity at 1 µM (panel of 391 kinases [6]; [23]): 93% | % Enzyme Activity (relative to DMSO controls) (panel of 391 kinases [7]): 98.72% | remaining activity at 1 µM (panel of 391 kinases [7]; [23]): 99.5% | % Enzyme Activity (relative to DMSO controls) (panel of 391 kinases [8]): 98.85% | remaining activity at 1 µM (panel of 391 kinases [8]; [23]): 106% | % Enzyme Activity (relative to DMSO controls) (panel of 391 kinases [9]): 82.88% | remaining activity at 1 µM (panel of 391 kinases [9]; [23]): 83% | remaining activity at 1 µM (panel of 391 kinases [10]): 92.8% | % Enzyme Activity (relative to DMSO controls) (panel of 391 kinases [11]): 96.23% | remaining activity at 1 µM (panel of 391 kinases [11]; [23]): 98.1% | % Enzyme Activity (relative to DMSO controls) (panel of 391 kinases [12]): 83.33% | remaining activity at 1 µM (panel of 391 kinases [12]; [23]): 87% | % Enzyme Activity (relative to DMSO controls) (panel of 391 kinases [13]): 123.95% | remaining activity at 1 µM (panel of 391 kinases [13]; [23]): 128% | % Enzyme Activity (relative to DMSO controls) (panel of 391 kinases [14]): 95.54% | remaining activity at 1 µM (panel of 391 kinases [14]; [23]): 96.8% | % Enzyme Activity (relative to DMSO controls) (panel of 391 kinases [15]): 90.69% | remaining activity at 1 µM (panel of 391 kinases [15]; [23]): 92.2% | % Enzyme Activity (relative to DMSO controls) (panel of 391 kinases [16]): 98.73% | remaining activity at 1 µM (panel of 391 kinases [16]; [23]): 106% | % Enzyme Activity (relative to DMSO controls) (panel of 391 kinases [17]): 97.74% | remaining activity at 1 µM (panel of 391 kinases [17]; [23]): 98.5% | % Enzyme Activity (relative to DMSO controls) (panel of 391 kinases [18]): 91.70% | remaining activity at 1 µM (panel of 391 kinases [18]; [23]): 95.4% | % Enzyme Activity (relative to DMSO controls) (panel of 391 kinases [19]): 104.43% | remaining activity at 1 µM (panel of 391 kinases [19]; [23]): 105% | % Enzyme Activity (relative to DMSO controls) (panel of 391 kinases [20]): 107.79% | remaining activity at 1 µM (panel of 391 kinases [20]; [23]): 108% | % Enzyme Activity (relative to DMSO controls) (panel of 391 kinases [21]): 100.97% | remaining activity at 1 µM (panel of 391 kinases [21]; [23]): 103% | % Enzyme Activity (relative to DMSO controls) (panel of 391 kinases [22]): 91.93% | remaining activity at 1 µM (panel of 391 kinases [22]; [23]): 94%
